The record followed here is ChEMBL document CHEMBL5120911, “Suncheonosides E-M and Benzothioate Derivatives from the Marine-Derived Streptomyces sp. ZSN77” (J Nat Prod, 2022).

Each structure is given as a SMILES string. pIC50: −log10 of the molar value. Counter-ions that a name gives are not always drawn.

Type in all cases: functional, cell-based
One assay concerns PC-3. In words: Cytotoxicity against human PC-3 cells assessed as reduction in cell viability incubated for 72 hrs by SRB assay. Conditions: PC-3, 72 h.
In a further assay the test system is MDA-MB-231. In words: Cytotoxicity against human MDA-MB-231 cells assessed as reduction in cell viability incubated for 72 hrs by SRB assay. The conditions noted are these: MDA-MB-231, 72 h.
The next assay has as its system HCT-116. In words: Cytotoxicity against human HCT-116 cells assessed as reduction in cell viability incubated for 72 hrs by SRB assay. The conditions noted are these: HCT-116, 72 h.
The test system of the next assay is BV-2. In words: Antiinflammatory activity in mouse BV-2 cells assessed as inhibition of LPS-induced NO production pretreated for 3 hrs followed by LPS stimulation measured after 24 hrs by microplate reader assay. Conditions: dose 2.5-10 µM, time 27.0 hrs, DDE = dose-dependent effect.

As a reminder, the pIC50 is the IC50 on a negative log10 scale, so that one unit is a factor of ten. For the compound `COC(=O)c1c(O)c(C)c(O)c(C)c1C(C)C`, the pIC50 is under 4.40 in the assay on PC-3, under 4.40 in the assay on MDA-MB-231 and 5.14 in the assay with HCT-116.
In the case of `CSC(=O)c1c(O[C@@H]2O[C@H](CO)[C@@H](O)[C@H](O)[C@H]2O)c(C)c(O)c(C)c1C(C)C`, the pIC50 in the assay on PC-3, in the assay on MDA-MB-231 and in the assay with HCT-116 was under 4.40 throughout. The Activity result with BV-2 was “Dde”.
As to `CSC(=O)c1c(O[C@@H]2O[C@H](CO)[C@@H](O)[C@H](O)[C@H]2O)c(C)c(OC(=O)c2c(O)c(C)c(O)c(C)c2C(C)C)c(C)c1C(C)C`, the pIC50 was 4.96 with MDA-MB-231 and under 4.40 in the assay with HCT-116.
With `CSC(=O)c1c(C)c(C)c(O)c(C)c1O[C@@H]1O[C@H](CO)[C@@H](O)[C@H](O)[C@H]1O`, the negative logarithm of the IC50 (pIC50) in the assay with PC-3, in the assay with MDA-MB-231 and in the assay on HCT-116 was under 4.40 throughout.
Take `Cc1c(O)c(C)c(C(C)C)c(O[C@@H]2O[C@H](CO)[C@@H](O)[C@H](O)[C@H]2O)c1O`: the pIC50 was 5.39 in the assay with PC-3, under 4.40 with MDA-MB-231 and under 4.40 with HCT-116. In addition, in the assay on BV-2, the Activity result is “Dde”.
Turning to `COc1c(C)c(O)c(C)c(C(C)C)c1C(=O)SC`, the values for the pIC50 in the assay on PC-3, in the assay with MDA-MB-231 and in the assay with HCT-116 were under 4.40, 4.44 and under 4.40, respectively. Further, in the assay on BV-2, the Activity result is “Dde”.
As to `CSC(=O)c1c(O)c(C)c(O)c(C)c1C(C)C`, the results for the pIC50 in the assay on MDA-MB-231 and with HCT-116 were under 4.40 and 5.41, respectively. The Activity result in the assay on BV-2 is “Dde”.
For `CCc1c(C)c(O)c(C)c(O[C@@H]2O[C@H](CO)[C@@H](O)[C@H](O)[C@H]2O)c1C(=O)SC`, the pIC50 with PC-3, with MDA-MB-231 and in the assay on HCT-116 was under 4.40 each time. For the same compound, the Activity entry in the assay on BV-2 was “Dde”.
Regarding `CSC(=O)c1c(C(C)C)cc(O)c(C)c1O[C@@H]1O[C@H](CO)[C@@H](O)[C@H](O)[C@H]1O`, the pIC50 in the assay with PC-3, in the assay on MDA-MB-231 and in the assay on HCT-116 was under 4.40 throughout.
For `COc1cccc2c1C(=O)c1c(O)c3c(c(O)c1C2=O)C[C@@](O)(C(=O)CO)C[C@@H]3O[C@H]1C[C@H](N)[C@H](O)[C@H](C)O1` [DOXORUBICIN HYDROCHLORIDE], the pIC50 in the assay on PC-3 and in the assay with MDA-MB-231 was 6.40 each time.
Turning to `Cc1c(O)cc(C(C)C)c(C)c1O`, the negative-log IC50 (pIC50) with PC-3, with MDA-MB-231 and with HCT-116 was under 4.40 in each case.
Regarding `CCc1c(O)c(C)c(O[C@@H]2O[C@H](CO)[C@@H](O)[C@H](O)[C@H]2O)c(C(=O)SC)c1C(C)C`, the pIC50 with PC-3, with MDA-MB-231 and in the assay with HCT-116 was under 4.40 in each case.
With `CCc1c(C)c(O)c(C)c(O[C@@H]2O[C@H](COC(C)=O)[C@@H](O)[C@H](O)[C@H]2O)c1C(=O)SC`, the pIC50 in the assay on MDA-MB-231 is 4.80; with HCT-116, under 4.40.
In the case of `CCc1c(C)c(O)c(C)c(O)c1C(=O)SC`, the negative-log IC50 (pIC50) with PC-3, with MDA-MB-231 and with HCT-116 was under 4.40 in each case.
On to `CSC(=O)c1c(O[C@@H]2O[C@H](COC(C)=O)[C@@H](O)[C@H](O)[C@H]2O)c(C)c(O)c(C)c1C(C)C`, for which the pIC50 in the assay with MDA-MB-231 and in the assay with HCT-116 was under 4.40 each time.
